Measured values: ChEMBL document CHEMBL1201862, “PubChem BioAssay data set” (2004)
“And” between values parts separate entries of the source, which are not always exact repeats. Identical values can stand only once. The source made the active and inactive calls. Non-standard residues stand in square brackets, D forms with d. Residues, ends and D or L forms follow the SMILES beside them. dChg = N[C@@H](C(=O)O)C1CCCCC1; NMeA = CN[C@@H](C)C(=O)O

Tests used:
Coagulation factor XII = target: T1, Coagulation factor XII (Homo sapiens, UniProt P00748); assay: Factor XIIa Dose Response Confirmation from Single Well HTS. [Related pubchem assays (depositor defined):AID701]; assay type: functional
T1 sequence (P00748 whole entry): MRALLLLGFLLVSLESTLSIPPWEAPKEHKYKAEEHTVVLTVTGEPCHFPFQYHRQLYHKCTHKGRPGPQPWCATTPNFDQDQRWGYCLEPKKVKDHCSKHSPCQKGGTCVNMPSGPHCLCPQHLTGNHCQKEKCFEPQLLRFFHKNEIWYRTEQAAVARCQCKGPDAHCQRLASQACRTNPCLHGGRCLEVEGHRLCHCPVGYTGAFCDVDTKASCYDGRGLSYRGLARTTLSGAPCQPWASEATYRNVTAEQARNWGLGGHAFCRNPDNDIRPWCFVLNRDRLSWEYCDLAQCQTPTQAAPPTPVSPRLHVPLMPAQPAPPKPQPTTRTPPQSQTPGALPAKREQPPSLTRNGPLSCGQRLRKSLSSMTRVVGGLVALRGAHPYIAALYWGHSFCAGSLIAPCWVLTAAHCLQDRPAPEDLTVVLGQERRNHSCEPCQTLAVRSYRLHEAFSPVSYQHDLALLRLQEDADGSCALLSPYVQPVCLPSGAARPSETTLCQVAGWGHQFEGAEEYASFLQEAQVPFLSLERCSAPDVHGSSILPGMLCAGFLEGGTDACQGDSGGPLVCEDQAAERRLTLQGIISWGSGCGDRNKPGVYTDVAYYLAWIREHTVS

Protein skinhead-1 = target: T2, Protein skinhead-1 (Caenorhabditis elegans, UniProt P34707); assay type: functional
T2 sequence (P34707 whole entry): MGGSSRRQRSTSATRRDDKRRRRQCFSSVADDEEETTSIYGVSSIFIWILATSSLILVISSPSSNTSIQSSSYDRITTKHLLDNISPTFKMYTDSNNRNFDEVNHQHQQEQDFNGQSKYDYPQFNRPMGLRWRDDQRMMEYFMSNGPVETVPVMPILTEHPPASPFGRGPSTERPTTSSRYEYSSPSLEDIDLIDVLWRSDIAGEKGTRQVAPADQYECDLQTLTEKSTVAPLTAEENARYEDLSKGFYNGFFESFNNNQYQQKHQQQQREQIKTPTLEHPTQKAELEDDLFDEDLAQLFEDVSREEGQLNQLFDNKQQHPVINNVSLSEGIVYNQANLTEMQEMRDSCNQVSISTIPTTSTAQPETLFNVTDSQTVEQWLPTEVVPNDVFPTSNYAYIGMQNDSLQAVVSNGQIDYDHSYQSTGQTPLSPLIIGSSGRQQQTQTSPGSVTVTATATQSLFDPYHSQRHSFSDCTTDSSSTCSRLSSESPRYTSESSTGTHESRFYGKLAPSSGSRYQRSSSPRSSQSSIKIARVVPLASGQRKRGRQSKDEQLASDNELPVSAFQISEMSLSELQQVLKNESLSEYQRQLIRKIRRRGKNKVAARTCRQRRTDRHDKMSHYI

Prothrombin = Prothrombin (Homo sapiens, UniProt P00734); assay: Thrombin 1536 HTS Dose Response Confirmation. [Related pubchem assays: 1046 (Thrombin 1536 HTS; hits were confirmed in this assay)]; assay type: functional
[1] = target: T3, Runt-related transcription factor 1/Core-binding factor subunit beta (Homo sapiens, UniProt Q01196+Q13951); assay: Runt domain/CBFb-SMMHC interaction disruptors – biochemical, TR-FRET (AID 1438); assay type: protein assay
[2] = target: T3, Runt-related transcription factor 1/Core-binding factor subunit beta; assay: disruptors of Runt domain/CBFb-SMMHC interaction – biochemical, FRET, Cerulean-Runt, Venus-CBFb-SMMHC, uHTS, […] (AID 1434); assay type: protein assay
SUMO-activating enzyme = SUMO-activating enzyme (Homo sapiens, UniProt Q9UBT2); assay: blockers of UBC9-mediated SUMO conjugation – biochemical, AlphaScreen, SUMOylation inhibitor project, confirmation (AID 2018); assay type: functional
[3] = target: T4, E3 ubiquitin-protein ligase XIAP (Homo sapiens, UniProt P98170); assay: Counter Screen using XIAP-Bir3 for Chemical Antagonists of Bir1/2 domains of IAP-family anti-apoptotic proteins. [Related pubchem assays (depositor defined):AID1018, AID1449, AID1514, AID1638, AID1749, AID1750, AID488957, AID488963]
[4] = viability loss in HEK293T cells – cell-based, cherry-picks, cytotoxicity control for HIV Vif inhibitor project, dose response (AID 652208); assay type: functional
[5] = target: T4, E3 ubiquitin-protein ligase XIAP; assay: small molecules displacing peptide from XIAP – biochemical, IAP family, fluorescence polarization (AID 1018); assay type: functional
[6] = target: DNA damage-inducible transcript 3 protein (Mus musculus, UniProt P35639); assay type: functional, Cricetulus griseus
Aspartyl aminopeptidase = Aspartyl aminopeptidase (Plasmodium falciparum 3D7, UniProt Q8I2J3)
X-box-binding protein 1 = target: T5, X-box-binding protein 1 (Homo sapiens, UniProt P17861); assay type: functional, Cricetulus griseus;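 further: confirmatory dose-response counter-screen serving a CHOP assay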
T5 sequence (P17861 whole entry): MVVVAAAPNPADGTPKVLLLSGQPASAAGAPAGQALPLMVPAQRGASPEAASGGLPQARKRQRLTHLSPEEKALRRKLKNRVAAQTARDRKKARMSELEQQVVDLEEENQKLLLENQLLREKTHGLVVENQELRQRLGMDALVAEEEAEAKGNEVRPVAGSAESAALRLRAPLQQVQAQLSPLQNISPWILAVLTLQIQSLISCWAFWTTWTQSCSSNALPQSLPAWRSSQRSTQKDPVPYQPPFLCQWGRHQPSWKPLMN

Procathepsin L = Procathepsin L (Homo sapiens, UniProt P07711)
[7] = target: Intestinal-type alkaline phosphatase (Homo sapiens, UniProt P09923); assay: human intestinal alkaline phosphatase activators, dose response, biochemical, luminescence, uHTS hits (AID 463120); assay type: functional
Nonstructural protein 1 = Nonstructural protein 1 (Influenza A virus, UniProt Q194T2); assay type: functional, Influenza A virus (A/California/07/2009(H1N1))
Hexokinase HKDC1 = target: T6, Hexokinase HKDC1 (Homo sapiens, UniProt Q2TB90); assay: activation of HKDC1 glucose phosphorylation – biochemical, W721R variant, dose response (AID 504730); assay type: functional
T6 sequence (Q2TB90 whole entry): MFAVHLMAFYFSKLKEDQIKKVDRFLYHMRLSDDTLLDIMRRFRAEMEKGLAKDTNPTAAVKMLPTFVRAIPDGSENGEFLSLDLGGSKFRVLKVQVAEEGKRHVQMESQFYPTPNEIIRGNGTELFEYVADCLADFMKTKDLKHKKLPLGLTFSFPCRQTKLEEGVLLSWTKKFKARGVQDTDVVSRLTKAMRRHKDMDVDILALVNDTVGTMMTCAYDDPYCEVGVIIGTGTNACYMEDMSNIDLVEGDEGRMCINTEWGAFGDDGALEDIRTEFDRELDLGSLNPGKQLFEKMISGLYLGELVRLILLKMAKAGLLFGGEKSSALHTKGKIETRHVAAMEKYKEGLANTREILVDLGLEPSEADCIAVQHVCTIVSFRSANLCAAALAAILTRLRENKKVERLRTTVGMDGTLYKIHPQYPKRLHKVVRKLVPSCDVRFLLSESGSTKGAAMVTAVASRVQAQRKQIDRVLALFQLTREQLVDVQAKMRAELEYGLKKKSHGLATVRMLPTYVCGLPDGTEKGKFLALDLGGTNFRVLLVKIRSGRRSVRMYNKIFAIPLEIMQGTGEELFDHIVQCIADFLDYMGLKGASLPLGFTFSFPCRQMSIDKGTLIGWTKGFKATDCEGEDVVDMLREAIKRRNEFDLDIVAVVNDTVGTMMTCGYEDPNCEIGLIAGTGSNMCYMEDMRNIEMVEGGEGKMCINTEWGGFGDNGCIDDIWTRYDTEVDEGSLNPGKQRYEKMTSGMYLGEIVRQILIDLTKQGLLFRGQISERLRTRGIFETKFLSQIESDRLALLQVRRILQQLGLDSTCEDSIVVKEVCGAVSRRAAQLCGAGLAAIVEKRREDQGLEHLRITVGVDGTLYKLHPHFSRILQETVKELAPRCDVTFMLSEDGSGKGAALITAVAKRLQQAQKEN

Hexokinase-1 = Hexokinase-1 (Homo sapiens, UniProt P19367); assay: HK1 enzyme activation by HKDC1 hits – biochemical, selectivity assay for HKDC1 activator project, dose response (AID 504762); assay type: functional
[8] = target: T4, E3 ubiquitin-protein ligase XIAP; assay: SAR analysis of Antagonists of IAP-family anti-apoptotic proteins. [Related pubchem assays (depositor defined):AID1018, AID1449, AID1513, AID1514, AID1638]
[9] = target: T4, E3 ubiquitin-protein ligase XIAP; assay: SAR analysis of Antagonists of XIAP-Bir3 domain of IAP-family anti-apoptotic proteins. [Related pubchem assays (depositor defined):AID1018, AID1449, AID1513, AID1514, AID1638]
[10] = target: T7, Sphingosine 1-phosphate receptor 4 (Homo sapiens, UniProt O95977); assay: Late-stage fluorescence dose response cell-based assay to identify agonists of the Sphingosine 1-Phosphate Receptor 4 (S1P4): purchased compounds EC50. [Related pubchem assays (depositor defined):AID1509, AID1523, AID1563, AID1686, AID1701, AID1801]; assay type: functional
T7 sequence (O95977 whole entry): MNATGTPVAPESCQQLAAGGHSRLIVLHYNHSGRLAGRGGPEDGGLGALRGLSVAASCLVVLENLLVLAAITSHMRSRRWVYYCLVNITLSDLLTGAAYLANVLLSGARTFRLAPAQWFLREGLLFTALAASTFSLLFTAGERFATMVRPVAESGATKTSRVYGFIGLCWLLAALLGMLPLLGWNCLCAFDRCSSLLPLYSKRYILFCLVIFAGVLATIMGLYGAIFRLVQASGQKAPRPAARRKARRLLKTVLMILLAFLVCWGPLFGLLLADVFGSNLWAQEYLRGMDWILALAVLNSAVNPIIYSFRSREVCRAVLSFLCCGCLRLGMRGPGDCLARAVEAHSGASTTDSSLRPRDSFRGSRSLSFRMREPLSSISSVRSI

[11] = target: T7, Sphingosine 1-phosphate receptor 4; assay: potency of S1P4 activators – cell-based, fluorescence, synthesized compounds, late-stage follow-up (AID 463107); assay type: functional
[12] = target: T8, Kappa-type opioid receptor (Homo sapiens, UniProt P41145); assay: SAR analysis of Antagonists of the Kappa Opioid Receptor (KOR) using an Image-Based Assay - Set 2. [Related pubchem assays (depositor defined):AID1777, AID1785, AID1786, AID1966, AID2133, AID2136, AID2284, AID2285, AID2348]; assay type: functional
[13] = target: Delta-type opioid receptor (Homo sapiens, UniProt P41143); assay: SAR Analysis of Antagonists of the DOR Receptor using an Image-Based Assay - Set 2. [Related pubchem assays (depositor defined):AID1777, AID1785, AID1786, AID1966, AID2133, AID2136, AID2284, AID2285, AID2357]; assay type: functional
[14] = target: T8, Kappa-type opioid receptor; assay: SAR analysis of small molecule agonists of the kappa opioid receptor via a luminescent beta-arrestin assay - Set 2. [Related pubchem assays (depositor defined):AID1777, AID1785, AID1786, AID1966, AID2133, AID2136, AID2284, AID449737]; assay type: functional

T4 sequence (P98170 whole entry): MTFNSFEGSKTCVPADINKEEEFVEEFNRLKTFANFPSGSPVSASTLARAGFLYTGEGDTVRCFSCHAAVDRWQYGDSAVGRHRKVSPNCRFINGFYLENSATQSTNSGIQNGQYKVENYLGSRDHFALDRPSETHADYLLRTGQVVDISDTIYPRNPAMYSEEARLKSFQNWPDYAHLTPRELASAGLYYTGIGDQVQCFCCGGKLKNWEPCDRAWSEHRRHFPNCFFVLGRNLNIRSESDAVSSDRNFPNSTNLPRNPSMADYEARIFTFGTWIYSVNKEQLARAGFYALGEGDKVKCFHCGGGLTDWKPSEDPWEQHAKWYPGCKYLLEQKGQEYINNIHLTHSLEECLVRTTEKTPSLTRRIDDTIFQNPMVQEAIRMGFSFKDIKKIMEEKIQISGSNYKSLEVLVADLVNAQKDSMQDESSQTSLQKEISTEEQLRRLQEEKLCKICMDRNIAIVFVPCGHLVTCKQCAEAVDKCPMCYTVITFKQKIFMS
T3 sequence (Q01196 whole entry, the tested form may be a part): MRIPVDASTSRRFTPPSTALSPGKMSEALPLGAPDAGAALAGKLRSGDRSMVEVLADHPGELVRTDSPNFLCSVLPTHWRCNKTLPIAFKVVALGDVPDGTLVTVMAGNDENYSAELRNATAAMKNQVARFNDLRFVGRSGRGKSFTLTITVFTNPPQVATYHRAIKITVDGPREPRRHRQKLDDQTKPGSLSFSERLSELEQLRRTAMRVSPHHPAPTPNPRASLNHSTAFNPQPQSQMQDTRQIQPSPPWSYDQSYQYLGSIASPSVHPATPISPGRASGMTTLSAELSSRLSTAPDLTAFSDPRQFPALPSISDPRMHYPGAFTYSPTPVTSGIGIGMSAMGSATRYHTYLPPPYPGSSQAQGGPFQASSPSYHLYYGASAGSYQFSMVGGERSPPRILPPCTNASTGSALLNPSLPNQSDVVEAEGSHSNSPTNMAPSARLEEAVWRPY
T3 sequence (Q13951 whole entry, the tested form may be a part): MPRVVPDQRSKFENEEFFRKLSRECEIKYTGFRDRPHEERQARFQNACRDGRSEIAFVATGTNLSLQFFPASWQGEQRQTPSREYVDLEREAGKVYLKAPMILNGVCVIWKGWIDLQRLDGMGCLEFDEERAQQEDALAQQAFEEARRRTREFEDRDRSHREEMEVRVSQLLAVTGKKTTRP
T8 sequence (P41145 whole entry): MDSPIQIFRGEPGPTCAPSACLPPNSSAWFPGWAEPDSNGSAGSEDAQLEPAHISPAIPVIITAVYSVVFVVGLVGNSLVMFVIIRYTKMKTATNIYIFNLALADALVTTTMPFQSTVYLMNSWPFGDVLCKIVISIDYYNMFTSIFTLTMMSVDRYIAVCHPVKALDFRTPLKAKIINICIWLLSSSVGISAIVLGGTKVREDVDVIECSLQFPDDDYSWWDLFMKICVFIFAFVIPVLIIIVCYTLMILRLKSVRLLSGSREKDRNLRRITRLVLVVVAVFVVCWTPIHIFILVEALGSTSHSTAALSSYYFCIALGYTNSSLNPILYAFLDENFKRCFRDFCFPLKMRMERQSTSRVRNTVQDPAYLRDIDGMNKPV
SUMO-activating enzyme, sequence (Q9UBE0 whole entry): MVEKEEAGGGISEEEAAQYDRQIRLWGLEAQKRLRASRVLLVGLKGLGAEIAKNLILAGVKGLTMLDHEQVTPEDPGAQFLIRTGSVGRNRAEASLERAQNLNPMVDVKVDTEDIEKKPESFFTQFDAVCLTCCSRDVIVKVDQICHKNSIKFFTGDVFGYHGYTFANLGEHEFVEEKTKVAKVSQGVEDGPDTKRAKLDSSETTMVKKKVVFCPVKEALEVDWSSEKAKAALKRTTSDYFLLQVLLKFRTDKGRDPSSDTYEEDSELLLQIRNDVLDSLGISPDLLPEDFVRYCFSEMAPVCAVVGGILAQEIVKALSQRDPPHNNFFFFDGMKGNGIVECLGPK
SUMO-activating enzyme, sequence (Q9UBT2 whole entry): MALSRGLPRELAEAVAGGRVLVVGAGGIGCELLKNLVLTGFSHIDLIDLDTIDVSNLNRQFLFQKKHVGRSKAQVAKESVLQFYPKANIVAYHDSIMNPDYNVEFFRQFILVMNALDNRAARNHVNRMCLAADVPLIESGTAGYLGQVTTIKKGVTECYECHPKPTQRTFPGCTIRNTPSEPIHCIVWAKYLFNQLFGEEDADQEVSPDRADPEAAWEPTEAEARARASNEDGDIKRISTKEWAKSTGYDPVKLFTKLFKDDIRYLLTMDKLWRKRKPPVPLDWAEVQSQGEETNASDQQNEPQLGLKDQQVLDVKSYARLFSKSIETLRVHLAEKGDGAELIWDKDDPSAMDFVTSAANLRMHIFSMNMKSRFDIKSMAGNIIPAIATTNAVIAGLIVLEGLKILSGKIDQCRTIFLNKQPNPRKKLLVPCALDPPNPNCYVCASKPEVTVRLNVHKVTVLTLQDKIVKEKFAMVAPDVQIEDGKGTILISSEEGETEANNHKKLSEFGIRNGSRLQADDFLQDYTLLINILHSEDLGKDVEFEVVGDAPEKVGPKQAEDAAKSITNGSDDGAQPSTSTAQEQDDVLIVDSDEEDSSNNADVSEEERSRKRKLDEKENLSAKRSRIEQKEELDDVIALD
Aspartyl aminopeptidase, sequence (Q8I2J3 whole entry): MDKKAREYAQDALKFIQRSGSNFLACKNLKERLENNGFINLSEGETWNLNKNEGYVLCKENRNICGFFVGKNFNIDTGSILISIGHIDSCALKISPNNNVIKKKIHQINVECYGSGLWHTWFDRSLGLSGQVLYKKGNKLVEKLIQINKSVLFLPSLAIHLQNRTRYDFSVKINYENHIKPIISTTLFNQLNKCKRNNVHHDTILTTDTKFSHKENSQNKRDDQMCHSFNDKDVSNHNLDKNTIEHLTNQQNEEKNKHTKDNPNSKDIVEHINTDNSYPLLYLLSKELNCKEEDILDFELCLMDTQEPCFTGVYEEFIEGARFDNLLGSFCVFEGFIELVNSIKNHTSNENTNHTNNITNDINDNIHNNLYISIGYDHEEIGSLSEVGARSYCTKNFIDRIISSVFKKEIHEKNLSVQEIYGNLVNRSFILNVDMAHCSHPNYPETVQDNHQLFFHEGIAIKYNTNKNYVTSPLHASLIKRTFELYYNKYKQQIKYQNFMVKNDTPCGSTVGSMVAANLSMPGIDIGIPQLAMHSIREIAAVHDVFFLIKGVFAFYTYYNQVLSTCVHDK
Nonstructural protein 1, sequence (Q194T2 whole entry): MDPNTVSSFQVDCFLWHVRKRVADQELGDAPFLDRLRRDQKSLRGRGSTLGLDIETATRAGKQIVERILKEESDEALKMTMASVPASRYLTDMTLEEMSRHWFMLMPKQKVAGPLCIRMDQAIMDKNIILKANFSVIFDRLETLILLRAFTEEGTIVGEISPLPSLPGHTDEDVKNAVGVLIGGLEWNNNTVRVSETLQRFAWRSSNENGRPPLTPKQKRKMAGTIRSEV
Intestinal-type alkaline phosphatase, sequence (P09923 whole entry): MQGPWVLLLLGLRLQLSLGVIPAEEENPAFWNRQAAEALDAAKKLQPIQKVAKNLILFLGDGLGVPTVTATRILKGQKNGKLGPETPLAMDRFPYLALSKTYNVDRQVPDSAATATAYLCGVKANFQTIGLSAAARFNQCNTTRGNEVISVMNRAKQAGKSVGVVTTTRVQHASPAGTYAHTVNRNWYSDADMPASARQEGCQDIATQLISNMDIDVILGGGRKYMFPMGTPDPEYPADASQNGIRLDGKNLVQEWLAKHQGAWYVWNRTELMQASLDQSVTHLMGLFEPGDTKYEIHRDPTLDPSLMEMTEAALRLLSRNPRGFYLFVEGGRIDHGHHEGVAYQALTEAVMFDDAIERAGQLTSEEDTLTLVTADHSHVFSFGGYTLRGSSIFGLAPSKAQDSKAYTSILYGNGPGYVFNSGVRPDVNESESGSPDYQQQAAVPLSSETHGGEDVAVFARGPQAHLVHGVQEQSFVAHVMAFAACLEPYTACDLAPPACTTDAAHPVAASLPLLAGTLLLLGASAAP
DNA damage-inducible transcript 3 protein, sequence (P35639 whole entry): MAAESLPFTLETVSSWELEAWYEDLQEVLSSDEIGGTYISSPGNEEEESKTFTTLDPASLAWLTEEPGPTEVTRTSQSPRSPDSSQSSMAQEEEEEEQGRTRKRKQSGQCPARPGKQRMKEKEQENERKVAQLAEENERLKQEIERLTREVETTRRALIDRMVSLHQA
Delta-type opioid receptor, sequence (P41143 whole entry): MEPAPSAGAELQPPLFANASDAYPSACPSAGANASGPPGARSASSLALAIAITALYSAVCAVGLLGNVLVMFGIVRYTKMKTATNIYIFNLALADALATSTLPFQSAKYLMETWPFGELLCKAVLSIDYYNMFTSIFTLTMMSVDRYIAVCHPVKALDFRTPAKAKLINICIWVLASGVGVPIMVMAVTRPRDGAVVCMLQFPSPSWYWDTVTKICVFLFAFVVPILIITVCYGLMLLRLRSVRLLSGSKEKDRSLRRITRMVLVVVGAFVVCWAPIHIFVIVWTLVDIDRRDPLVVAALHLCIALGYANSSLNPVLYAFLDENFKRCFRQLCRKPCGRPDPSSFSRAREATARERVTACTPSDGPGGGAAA
Procathepsin L, sequence (P07711 whole entry): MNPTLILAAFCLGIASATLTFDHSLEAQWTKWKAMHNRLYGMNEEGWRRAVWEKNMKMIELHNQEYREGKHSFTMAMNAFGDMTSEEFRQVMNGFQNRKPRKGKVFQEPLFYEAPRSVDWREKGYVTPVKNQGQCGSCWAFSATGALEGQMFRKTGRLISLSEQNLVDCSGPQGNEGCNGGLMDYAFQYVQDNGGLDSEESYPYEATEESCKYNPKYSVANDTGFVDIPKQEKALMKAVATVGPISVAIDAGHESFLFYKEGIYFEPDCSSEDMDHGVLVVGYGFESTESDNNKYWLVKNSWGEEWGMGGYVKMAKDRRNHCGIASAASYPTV

Q: For `Cc1ccc(C(=O)n2nc(-c3cccnc3)nc2N)cc1`, which IC50 (Coagulation factor XII) is on record?
A: 0.796 µM (active)

Q: And the IC50 (Protein skinhead-1)?
A: > 100 µM (inactive)

Q: And the IC50 (Prothrombin)?
A: 0.543 µM (active)

Q: Which results are given for `N=c1c(S(=O)(=O)c2ccccc2)cc2c(=O)n3ccccc3nc2n1Cc1ccco1`?
A: IC50 [1]: 57.5 µM (inactive); IC50 [2]: 3.38 µM (active); IC50 (SUMO-activating enzyme): 6.01 µM (active)

Q: For `Cc1cc(NC(=O)NC2(C(F)(F)F)Oc3ccc(Cl)cc3O2)no1` (centres undefined), which IC50 [3] is on record?
A: > 100 µM (inactive)

Q: What about the AC50 [4] of the same compound?
A: 38 µM (active)

Q: What about the IC50 [5] of the same compound?
A: > 100 µM (not active)

Q: And the “Absolute IC50 (CHOP)” value [6]?
A: 10 µM

Q: And the IC50 (Aspartyl aminopeptidase)?
A: 1.69 µM (active)

Q: What about the “Absolute IC50 (XBP1)” value (X-box-binding protein 1) of the same compound?
A: < 10 µM

Q: What about the IC50 (Procathepsin L) of the same compound?
A: > 59.6 µM (not active)

Q: Which EC50 [7] does the source give for `O=C(COc1ccc(Br)cc1)NCCCn1ccnc1` here?
A: > 100 µM (inactive)

Q: Which IC50 (Nonstructural protein 1) does the source give for `S=C(NN=C(c1ccccc1)c1ccccn1)N(Cc1ccccn1)Cc1ccccn1` here?
A: 2.59 µM (active)

Q: What about the EC50 (Hexokinase HKDC1) of the same compound?
A: 1.78 µM (active)

Q: What about the EC50 (Hexokinase-1) of the same compound?
A: > 80 µM (inactive)

Q: For `CC1CCCc2ccccc21.CN[C@@H](C)C(=O)N[C@@H](C(=O)N1CCC[C@H]1C(N)=O)C1CCCCC1` (H-[NMeA]-[dChg]-Pro-NH2), which IC50 [8] is on record?
A: > 100 µM (inactive)

Q: And the IC50 [9]?
A: > 100 µM (inactive)

Q: Which results are given for `Cc1ccc(OCCOc2ccc(Br)cc2)c([N+](=O)[O-])n1`?
A: EC50 [10]: 20.7 µM (inactive) and 23.3 µM (inactive); EC50 [11]: > 50 µM (inactive)

Q: For `CC[C@](C)(C(=O)Nc1ccc(Br)cc1)N(Cc1ccco1)C(=O)c1ccccn1`, which IC50 [12] is on record?
A: > 32 µM (inactive)

Q: What about the IC50 [13] of the same compound?
A: > 32 µM (inactive)

Q: And the EC50 [14]?
A: 0.0802 µM (active)
